Results taken from ChEMBL document CHEMBL3045707, “Synthesis of new 3-aryl-4-(3-aryl-4,5-dihydro-1H-pyrazol-5-yl)-1-phenyl-1H-pyrazole derivatives as potential antimicrobial agents” (2013).

Legend:
Type in all cases: functional
Aspergillus flavus [1] = test: Antimicrobial activity against Aspergillus flavus assessed as diameter of growth inhibition zone at 1000 ug/ml after 72 hr by agar well plate method; details: read-out: DIZ
Escherichia coli [2] = test: Antimicrobial activity against Escherichia coli ATCC 25922 assessed as diameter of growth inhibition zone at 500 ug/ml after 24 hr by agar well plate method; details: ATCC 25922, 24 h, read-out: DIZ
[3] = test system: Chrysosporium keratinophilum; test: Antimicrobial activity against Chrysosporium keratinophilum assessed as diameter of growth inhibition zone at 1000 ug/ml after 72 hr by agar well plate method; details: read-out: DIZ
Escherichia coli [4] = test: Antimicrobial activity against Escherichia coli ATCC 25922 assessed as diameter of growth inhibition zone at 1000 ug/ml after 24 hr by agar well plate method; details: ATCC 25922, 24 h, read-out: DIZ
[5] = test system: Chrysosporium keratinophilum; test: Antimicrobial activity against Chrysosporium keratinophilum assessed as diameter of growth inhibition zone at 500 ug/ml after 72 hr by agar well plate method; details: read-out: DIZ
Staphylococcus aureus [6] = test: Antimicrobial activity against Staphylococcus aureus ATCC 25923 assessed as diameter of growth inhibition zone at 1000 ug/ml after 24 hr by agar well plate method; details: ATCC 25923, 24 h, read-out: DIZ
Aspergillus flavus [7] = test: Antimicrobial activity against Aspergillus flavus assessed as diameter of growth inhibition zone at 500 ug/ml after 72 hr by agar well plate method; details: read-out: DIZ
Candida albicans [8] = test: Antimicrobial activity against Candida albicans MTCC 227 assessed as diameter of growth inhibition zone at 1000 ug/ml after 72 hr by agar well plate method; details: MTCC 227, 72 h, read-out: DIZ
Candida albicans [9] = test: Antimicrobial activity against Candida albicans MTCC 227 assessed as diameter of growth inhibition zone at 500 ug/ml after 72 hr by agar well plate method; details: MTCC 227, 72 h, read-out: DIZ
Pseudomonas aeruginosa [10] = test: Antimicrobial activity against Pseudomonas aeruginosa ATCC 27853 assessed as diameter of growth inhibition zone at 1000 ug/ml after 24 hr by agar well plate method; details: ATCC 27853, 24 h, read-out: DIZ
Staphylococcus aureus [11] = test: Antimicrobial activity against Staphylococcus aureus ATCC 25923 assessed as diameter of growth inhibition zone at 500 ug/ml after 24 hr by agar well plate method; details: ATCC 25923, 24 h, read-out: DIZ
Pseudomonas aeruginosa [12] = test: Antimicrobial activity against Pseudomonas aeruginosa ATCC 27853 assessed as diameter of growth inhibition zone at 500 ug/ml after 24 hr by agar well plate method; details: ATCC 27853, 24 h, read-out: DIZ

| SMILES | zone of inhibition at 1000 µg/mL (Aspergillus flavus [1]) [mm] | zone of inhibition at 500 µg/mL (Escherichia coli [2]) [mm] | zone of inhibition at 1000 µg/mL [3] [mm] | zone of inhibition at 1000 µg/mL (Escherichia coli [4]) [mm] | zone of inhibition at 500 µg/mL [5] [mm] | zone of inhibition at 1000 µg/mL (Staphylococcus aureus [6]) [mm] | zone of inhibition at 500 µg/mL (Aspergillus flavus [7]) [mm] | zone of inhibition at 1000 µg/mL (Candida albicans [8]) [mm] | zone of inhibition at 500 µg/mL (Candida albicans [9]) [mm] | zone of inhibition at 1000 µg/mL (Pseudomonas aeruginosa [10]) [mm] | zone of inhibition at 500 µg/mL (Staphylococcus aureus [11]) [mm] | zone of inhibition at 500 µg/mL (Pseudomonas aeruginosa [12]) [mm] |
| --- | --- | --- | --- | --- | --- | --- | --- | --- | --- | --- | --- | --- |
| COc1ccc(-c2nn(-c3ccccc3)cc2C2CC(c3ccc(SC)cc3)=NN2c2ccccc2)cc1 (centres undefined) | 0 | 1 | 0 | 2 | 0 | 4 | 0 | 0 | 0 | 4 | 3 | 2 |
| COc1ccc(-c2nn(-c3ccccc3)cc2C2CC(c3ccc(Cl)cc3Cl)=NN2c2ccccc2)cc1 (centres undefined) | 0 | 2 | 0 | 3 | 0 | 4 | 0 | 0 | 0 | 4 | 3 | 1 |
| Clc1ccc(-c2nn(-c3ccccc3)cc2C2CC(c3ccc(Cl)cc3Cl)=NN2c2ccccc2)cc1 (centres undefined) | 4 | 4 | 5 | 6 | 2 | 7 | 2 | 4 | 2 | 8 | 4 | 6 |
| Clc1ccc(C2=NN(c3ccccc3)C(c3cn(-c4ccccc4)nc3-c3ccc(Br)cc3)C2)c(Cl)c1 (centres undefined) | 4 | 5 | 4 | 8 | 2 | 8 | 1 | 3 | 1 | 5 | 6 | 5 |
| Clc1ccc(C2=NN(c3ccccc3)C(c3cn(-c4ccccc4)nc3-c3ccccc3)C2)c(Cl)c1 (centres undefined) | 0 | 0 | 0 | 0 | 0 | 0 | 0 | 0 | 0 | 0 | 0 | 0 |
| CSc1ccc(C2=NN(c3ccccc3)C(c3cn(-c4ccccc4)nc3-c3ccc(Br)cc3)C2)cc1 (centres undefined) | 4 | 6 | 6 | 7 | 5 | 9 | 3 | 4 | 2 | 8 | 7 | 6 |
| COc1ccc(-c2nn(-c3ccccc3)cc2C2CC(c3ccc(-c4ccccc4)cc3)=NN2c2ccccc2)cc1 (centres undefined) | 0 | 2 | 0 | 4 | 0 | 4 | 0 | 0 | 0 | 5 | 2 | 2 |
| CSc1ccc(C2=NN(c3ccccc3)C(c3cn(-c4ccccc4)nc3-c3ccccc3)C2)cc1 (centres undefined) | 0 | 1 | 0 | 3 | 0 | 2 | 0 | 0 | 0 | 3 | 0 | 2 |
| CSc1ccc(C2=NN(c3ccccc3)C(c3cn(-c4ccccc4)nc3-c3ccc(Cl)cc3)C2)cc1 (centres undefined) | 3 | 4 | 3 | 5 | 1 | 8 | 2 | 3 | 1 | 7 | 5 | 4 |
| Clc1ccc(-c2nn(-c3ccccc3)cc2C2CC(c3ccc(-c4ccccc4)cc3)=NN2c2ccccc2)cc1 (centres undefined) | 5 | 5 | 4 | 7 | 3 | 8 | 3 | 5 | 2 | 4 | 6 | 6 |
| Brc1ccc(-c2nn(-c3ccccc3)cc2C2CC(c3ccc(-c4ccccc4)cc3)=NN2c2ccccc2)cc1 (centres undefined) | 6 | 6 | 4 | 9 | 3 | 6 | 5 | 5 | 4 | 7 | 4 | 5 |
| OC(Cn1cncn1)(Cn1cncn1)c1ccc(F)cc1F [FLUCONAZOLE] | 13 |  | 17 |  | 15 |  | 10 | 22 | 20 |  |  |  |
| CN[C@@H]1[C@H](O[C@H]2[C@H](O[C@H]3[C@H](O)[C@@H](O)[C@H](N=C(N)N)[C@@H](O)[C@@H]3N=C(N)N)O[C@@H](C)[C@]2(O)C=O)O[C@@H](CO)[C@H](O)[C@H]1O [STREPTOMYCIN] |  | 10 |  | 16 |  | 15 |  |  |  | 16 | 10 | 13 |
